Experimental data from ChEMBL document CHEMBL1134720, “Antitumour benzothiazoles. Part 15: The synthesis and physico-chemical properties of 2-(4-aminophenyl)benzothiazole sulfamate salt derivatives” (Bioorg Med Chem Lett, 2001).

Experiments:
[1] = Log P (Octanol:buffer pH 7.4); format: physicochemical
[2] = Log P (Cyclohexane:buffer pH 7.4); format: physicochemical
[3] = Antitumor activity expressed as inhibitory concentration against human breast cell line MDA 468(ER-ve); format: functional, cell-based; settings: MDA-MB-468
[4] = tested on: MCF7; assay: Antitumor activity expressed as inhibitory concentration against human breast cell line MCF-7(ER+ve); format: functional, cell-based
[5] = Solubility of compound at pH 6; format: physicochemical; settings: buffer
[6] = Solubility of compound at pH 5.4; format: physicochemical; settings: buffer
[7] = Solubility of compound at pH 7.5; format: physicochemical; settings: buffer
[8] = Delta Log P was determined; format: physicochemical; settings: octanol/water
[9] = Solubility of compound at pH 9; format: physicochemical; settings: buffer
[10] = Solubility of compound at pH 4.2; format: physicochemical; settings: buffer
[11] = Solubility of compound at pH 7.1; format: physicochemical; settings: buffer

Row | Compound | logD [1] | logD [2] | IC50 [3] | IC50 [4] | solubility [5] | solubility [6] | solubility [7] | delta Log P [8] | solubility [9] | solubility [10] | solubility [11]
1 | Cc1cc(-c2nc3ccccc3s2)ccc1N | 3.96 | 2.51 | – | – | – | – | – | – | – | – | –
2 | Nc1ccc(-c2nc3ccccc3s2)cc1Br | > 3.3 | > 2.8 | – | – | – | – | – | – | – | – | –
3 | Nc1ccc(-c2nc3ccccc3s2)cc1Cl | > 3.3 | > 3.2 | – | – | – | – | – | – | – | – | –
4 | O=S(=O)([O-])Nc1ccc(-c2nc3ccccc3s2)cc1I.[Na+] | 1.8 | 1.9 | 1900 nM | 1800 nM | – | – | – | – | – | – | –
5 | O=S(=O)([O-])Nc1ccc(-c2nc3ccccc3s2)cc1Cl.[Na+] | 0.02 | < 2.19 | 9000 nM | 420 nM | 400 µg/mL | 300 µg/mL | 300 µg/mL | > 2.17 | 700 µg/mL | 500 µg/mL | 300 µg/mL
6 | Cc1cc(-c2nc3ccccc3s2)ccc1NS(=O)(=O)[O-].[Na+] | 0.6 | < 3 | 720 nM | 490 nM | – | – | – | > 2.4 | – | – | –
7 | Nc1ccc(-c2nc3ccccc3s2)cc1I | > 3.3 | > 2.7 | – | – | – | – | – | – | – | – | –
8 | O=S(=O)(O)Nc1ccc(-c2nc3ccccc3s2)cc1 | 3.4 | – | 7500 nM | 3400 nM | – | – | – | – | – | – | –
